Paper PMC9181982, “Biphenyl Ether Analogs Containing Pomalidomide as Small-Molecule Inhibitors of the Programmed Cell Death-1/Programmed Cell Death-Ligand 1 Interaction” (Molecules, 2022)

Molecular target: T1, PD-L1 protein (Homo sapiens, UniProt Q9NZQ7)
T1 construct: PD-L1 gene (amino acids 18–239); made in house; host or cells: E. coli BL21
Experiment: 1H NMR binding analysis, PD-L1 protein titrated with ligand
Details: for Protein precipitation during NMR titration: 1H NMR titration, compound 6 at protein–ligand ratio 1:10; for Binding to PD-L1 by 1H NMR titration: PBS pH 7.4, 300 K, protein–ligand ratios up to 1:10
Method: Apart from the HTRF assay, we performed the NMR [33, 34] binding analysis by recording the ^1H spectrum of the PD-L1 protein titrated with compound 4 (Figure 1).
The E. coli strain BL21 was transformed with a pET-21b plasmid carrying the PD-L1 gene (amino acids 18–239). The bacteria were cultured in LB at 37 °C until OD600nm of 0, 6 when the recombinant protein production was induced with 1 mM IPTG. The protein production continued overnight. The inclusion bodies were collected by centrifugation, washed twice with 50 mM Tris HCl, pH 8.0, containing 200 mM NaCl, 10 mM EDTA, 10 mM 2-mercaptoethanol, and 0.5% Triton X-100, followed by a single wash with the same buffer but with no Triton X-100. The washed inclusion bodies were resuspended overnight in 50 mM Tris HCl, pH 8.0, 6 M GuHCl, 200 mM NaCl, and 10 mM 2-mercaptoethanol and clarified with centrifugation. Refolding of PD-L1 was performed by dropwise dilution into 0.1 M Tris HCl, pH 8.0, containing 1 M L-arginine hydrochloride, 0.25 mM oxidized glutathione, and 0.25 mM reduced glutathione. The refolded protein was dialyzed three times against 10 mM Tris HCl, pH 8.0, containing 20 mM NaCl and purified by size exclusion chromatography using Superdex 75 and a dialysis buffer. The quality of the refolded protein was evaluated by SDS-PAGE and NMR.
NMR spectra were recorded in PBS, pH 7.4, containing 10% (v/v) of D2O added to the samples to provide the lock signal. Water suppression was carried out using the WATERGATE sequence. All the spectra were recorded at 300 K using a Bruker Avance 600 MHz spectrometer with the Cryo-Platform. The NMR spectrum was recorded at three different ligand/protein ratios from 0 to 10. The samples were prepared by adding small amounts of a 50 mM ligand stock solution in DMSO to the protein solution (0.20 mL) of the PD-L1 fragment at a concentration of 0.14 mM. The acquisition parameters for each spectrum were as follows: size of FID32768, number of scans: 32. The spectra were visualized using TopSpin 4.0.2. (Bruker, Billerica, MA, USA)

T1 sequence (Q9NZQ7 18-239): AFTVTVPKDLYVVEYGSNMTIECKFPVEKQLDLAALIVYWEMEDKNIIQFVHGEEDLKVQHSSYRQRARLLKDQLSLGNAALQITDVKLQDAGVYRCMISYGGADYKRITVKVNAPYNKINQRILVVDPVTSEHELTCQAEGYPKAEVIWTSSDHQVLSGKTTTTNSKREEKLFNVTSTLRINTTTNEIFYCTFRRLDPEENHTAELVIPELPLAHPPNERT

SMILES | Protein precipitation during NMR titration | Binding to PD-L1 by 1H NMR titration
COc1nc(OCc2cccc(-c3ccccc3)c2C)ccc1CNCC1CCN(CC(=O)Nc2cccc3c2C(=O)N(C2CCC(=O)NC2=O)C3=O)CC1 (stereo not shown) [compound 4, N-(2-(2,6-dioxopiperidin-3-yl)-1,3-dioxoisoindolin-4-yl)-2-(4-((((2-methoxy-6-((2-methyl-[1,1′-biphenyl]-3-yl)methoxy)pyridin-3-yl)methyl)amino)methyl)piperidin-1-yl)acetamide] | not observed | bind to the PD-L1 protein
COc1nc(OCc2cccc(-c3ccccc3)c2C)ccc1CNCCCNc1cccc2c1C(=O)N(C1CCC(=O)NC1=O)C2=O (stereo not shown) [compound 5, 2-(2,6-dioxopiperidin-3-yl)-4-((3-(((2-methoxy-6-((2-methyl-[1,1′-biphenyl]-3-yl)methoxy)pyridin-3-yl)methyl)amino)propyl)amino)isoindoline-1,3-dione] | not observed | bind to the PD-L1 protein
